Experimental data reported in patent US10668049B2, “Methods of treating cognitive decline with transforming growth factor beta inhibitors” (The Regents of the University of California, priority 2008, dated 2020).

What was measured:
[1] = target: T1, astrocyte specific glutamate transporter, SLC1A2 (Rattus norvegicus, UniProt P31596); test: Whole cell patch recording of NMDA-mediated EPSCs in cortical pyramidal neurons; assay type: cell-based; settings: DHK 100 μM
T1 construct: In vitro intracellular recordings were obtained from pyramidal neurons (layer 2-3) 23-28 h following the in vivo treatment; from tissue; host or cells: acute rat neocortical slices (astrocytic transporter; recordings from layer 2-3 pyramidal neurons)
Description: In vitro intracellular recordings were obtained from pyramidal neurons (layer 2-3) 23-28 h following the in vivo treatment with albumin or from control rats. Currents were recorded using the whole cell patch configuration, as described previously (Pavlovsky et al., 2003). In brief, glass pipettes were pulled from capillaries using a vertical puller (Narashige, Greenvale, N.Y.) and filled with a solution comprising (in mM): 150 CsCl, 1 MgCl2, 10 HEPES, 4 Na2ATP, 0.1 CaCl2, and 1.1 mM EGTA, pH adjusted to 7.2 with a final osmolarity of 290-310 mOsm. Cells were visualized using infrared differential interference phase contrast video-microscopy. Recordings were performed using AxoPatch 700B (Axon Instruments, Foster City, Calif.), digitized at 10 kHz and recorded using pClamp 9.2 (Axon Instruments, Foster City, Calif.). Patch pipette's resistance was 4-5 MΩ. Series resistance was not electronically compensated; however, cells in which series resistance varied by more than 25% were excluded from the analysis. Stimulation protocols were started at least 5 min following impalement to allow intracellular dialysis with the pipette solution. Excitatory post-synaptic currents (EPSCs) were evoked—using a bipolar stimulating electrode positioned <200 μm from the recorded cell—at 75% of the intensity producing maximal EPSCs. N-methyl-D-aspartic acid (NMDA) currents were recorded in the presence of blockers of α-amino-3-hydroxy-5-methyl-4-isoxazole-propionic acid (AMPA)/kainate (i.e., 30 μM CNQX) and of gamma-aminobutyric acid A (GABAA) receptors (i.e., 10 μM bicuculine methiodide). Cells were voltage clamped to +40 mV to alleviate NMDA receptor blockade and inactivate fast Na^+ currents. In some experiments, dihydrokainic acid (DHK, Tocris, Bristol, UK), 100 μM, was added to the extracellular solution to selectively block the astrocyte specific glutamate transporter, SLC1A2 (see Arriza et al., 1994).
To confirm that the transcriptional changes induced by albumin were associated with altered cellular functions, the clearance of extracellular glutamate and potassium in cortical slices 24 hours following albumin treatment in vivo was investigated. To measure synaptic glutamate levels during neuronal activation, the slowly inactivating (Lester et al., 1990) NMDA currents in cortical neurons were recorded by using the whole-cell patch configuration (in the presence of non-NMDA glutamate and GABA receptor blockers, see Methods). Cells were clamped at +40 mV to prevent a potential confounding effect of post-synaptic depolarization due to the accumulation of synaptic [K^+]o. […] Synaptic glutamate elicited by 50 extracellular stimulations at 2, 5, 10, 20, 50 and 100 Hz before and after adding the astrocytic SLC1A2 specific inhibitor, DHK was measured. In neurons from control animals, DHK had no effect on single EPSCs or EPSCs elicited at low stimulation frequencies (<20 Hz). […] The same experiments were then repeated 24 h following cortical application of albumin (i.e. during epileptogenesis). In contrast to the control experiments, DHK had no effect on EPSC amplitude in treated slices (FIG. 13b-c, right), supporting reduced expression of the astrocytic transporter SLC1A2.

[2] = test system: albumin-induced epileptogenesis; test: EEG recording from awake rats during albumin-induced epileptogenesis; assay type: in vivo, rat
neocortical slices = test: Field potential recordings of epileptiform activity in neocortical slices; assay type: cell-based, rat
Description: Brain slices for the in vitro experiments were prepared by means of standard techniques (Ivens et al., 2007; Pavlovsky et al., 2003; Seiffert et al., 2004). Slices were transferred to a recording chamber where they were incubated in aCSF containing BSA (6.7 mg/ml), TGF-β1 (10 ng/ml) or artificial serum (aSerum, composition based on aCSF with the following changes, composition in mM: 0.8 MgSO4, 1.3 CaCl2, 5.7 KCl, 1 L-glutamine, 0.1 albumin). To block the activity of TGF-β1, slices were incubated in aCSF containing SB431542 (10 μM) before the addition of TGF-β1 (10 ng/ml). To block TGF-βRs, slices were incubated in aCSF containing SB431542 (10 μM) and TGF-βRII antibody (10 μg/ml) for 30 min followed by incubation in BSA in the presence of TGF-βR blockers. For detection of epileptiform activity, field potentials were recorded >4 h following incubation in cortical layer IV using extracellular glass microelectrodes (˜3 MΩ) in response to bipolar stimulation at the border of white and grey matter.
To assess the hypothesis that activation of the TGF-β signaling pathway is the mechanism underlying albumin-induced epileptogenesis, we activated this pathway directly by incubating neocortical slices with TGF-β1 (10 ng/mL) in artificial cerebrospinal fluid (aCSF) and performed electrophysiological recordings. These recordings were compared to those of slices treated with a solution containing serum levels of electrolytes and 0.1 mM albumin (aSERUM, previously shown to induce epileptogenesis; Ivens et al., 2007), albumin in aCSF, or aCSF (control). […] When albumin was added to the control aCSF solution, epileptiform activity was recorded in response to stimulation of the white matter (n=8 out of 12 slices, 6 animals). Importantly. TGF-β1 treatment was sufficient to recapitulate epileptiform activity similar to that seen following treatment with aSERUM and albumin in aCSF (n=5 out of 5 slices, 4 animals; n=7 out of 9 slices, 3 animals; and n=8 out of 12 slices, 6 animals, respectively). In all three cases, the evoked epileptiform activity, was all-or-none in nature, paroxysmal and prolonged, similar to that seen following BBB opening with bile salts (Ivens et al., 2007; Seiffert et al., 2004) and typical to that observed in acute models of epilepsy (Gutnick et al., 1982).
To further confirm that the TGF-β1 induced epileptiform activity was dependent on the TGF-βR mediated pathway, we performed additional trials of the above experiments in the presence of two TGF-βR blockers (SB431542, the TGF-βRI kinase activity inhibitor and TGF-βRII antibody).

T1 sequence (P31596 whole entry): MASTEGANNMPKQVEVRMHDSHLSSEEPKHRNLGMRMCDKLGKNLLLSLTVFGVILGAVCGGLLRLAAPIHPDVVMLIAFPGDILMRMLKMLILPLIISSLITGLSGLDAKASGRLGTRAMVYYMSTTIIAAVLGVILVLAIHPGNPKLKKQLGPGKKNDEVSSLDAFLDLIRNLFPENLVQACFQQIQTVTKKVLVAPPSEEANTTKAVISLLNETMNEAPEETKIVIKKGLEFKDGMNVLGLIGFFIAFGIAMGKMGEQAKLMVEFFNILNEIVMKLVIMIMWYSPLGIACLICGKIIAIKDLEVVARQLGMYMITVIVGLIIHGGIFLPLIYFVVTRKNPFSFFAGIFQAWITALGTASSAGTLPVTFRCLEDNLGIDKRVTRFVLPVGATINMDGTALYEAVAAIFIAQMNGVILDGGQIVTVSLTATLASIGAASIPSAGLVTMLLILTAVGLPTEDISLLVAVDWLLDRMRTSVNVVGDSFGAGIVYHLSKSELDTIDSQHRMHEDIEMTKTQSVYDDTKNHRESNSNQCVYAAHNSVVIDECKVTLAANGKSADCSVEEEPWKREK

`CC(C)[C@H]1CN[C@H](C(=O)O)[C@H]1CC(=O)O` [DHK, dihydrokainic acid, reference compound] was tested, and the “effect on NMDA currents at stimulation frequencies >20 Hz” value ([1]; neurons from control animals) was “increased NMDA currents”, the “effect on single EPSCs or EPSCs elicited at low stimulation frequencies (<20 Hz)” value ([1]; neurons from control animals) was “no effect” and the “effect on EPSC amplitude” value ([1]; slices 24 h following cortical application of albumin) was “no effect”.

With `CCCCc1nc(Cl)c(CO)n1Cc1ccc(-c2ccccc2-c2nnn[nH]2)cc1.[K]` [Losartan, 2-butyl-4-chloro-1-[p-(o-1H-tetrazol-5-ylphenyl)benzyl]imidazole-5-methanol, monopotassium salt, reference compound] the “number of seizure like events (SLEs)” value ([2]; losartan-treated rats (n=7) compared to BSA-treated ones (n=8)) was “significantly smaller” and the “albumin-induced EEG changes (signal harmony, complexity) during epileptogenesis” value ([2]; single, focal application together with BSA, 10 μM) was “reversed the albumin-induced EEG changes”.

“TGF-β1: TGF-β1 (10 ng/ml, Peprotech), used to activate the TGF-β pathway” was tested, and the “integral of the field potential” value (neocortical slices; inducer alone, without TGF-βR blockers) was 84.1±20.1 mV*ms and the “evoked epileptiform activity in response to stimulation of the white matter, slices showing it” value (neocortical slices; slices incubated with the inducer) was 5 out of 5.
